Laboratory results: patent US5462957A, “Azole derivatives, pharmaceutical compositions containing the same, and method for treating mycosis and estrogen-dependent diseases” (Kureha Chemical Industry Co., Ltd., priority 1992, dated 1995)
Read-outs that look alike come from different tables or passages of the source.

What was measured:
[1] = target: T1, aromatase (Homo sapiens, UniProt P11511); assay: Aromatase inhibitory activity (human placenta microsomes, [19-14C]4-androstene-3,17-dione); type: biochemical
T1 construct: human placenta microsomes (a protein concentration of 0.1 mg/ml); from tissue; host or cells: human placenta microsomes
T1 sequence (P11511 1-503): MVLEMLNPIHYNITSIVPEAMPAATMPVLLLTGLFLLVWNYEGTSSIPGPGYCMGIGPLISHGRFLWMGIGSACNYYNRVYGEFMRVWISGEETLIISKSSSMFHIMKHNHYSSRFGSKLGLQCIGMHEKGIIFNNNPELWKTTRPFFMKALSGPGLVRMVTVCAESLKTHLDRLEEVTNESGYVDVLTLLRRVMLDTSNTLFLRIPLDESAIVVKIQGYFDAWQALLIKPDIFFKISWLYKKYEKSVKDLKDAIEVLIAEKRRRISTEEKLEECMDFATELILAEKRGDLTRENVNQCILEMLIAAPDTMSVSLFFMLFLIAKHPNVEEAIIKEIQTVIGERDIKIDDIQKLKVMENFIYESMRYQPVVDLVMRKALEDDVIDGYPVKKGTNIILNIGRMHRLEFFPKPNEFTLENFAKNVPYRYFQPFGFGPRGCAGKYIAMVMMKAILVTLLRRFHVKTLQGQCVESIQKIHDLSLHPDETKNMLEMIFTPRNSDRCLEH
Experimental: The aromatase enzyme-inhibitory activity was determined in the manner described by Covey, D. F., Biochem. Biophys. Res. Commu., 157 (1), 81-86, 1988. More specifically, the aromatase-inhibitory activity of a compound of formula (I) was evaluated in terms of the concentration (IC50) of the compound causing 50% inhibition of the aromatase activity.
Aromatase activity was determined in the manner described by Covey, D. F., Biochem. Biophys. Res. Commun. 157 (1), 81-86 (1988).
Aromatase inhibitory activity of the compounds was evaluated in the 50% aromarase-inhibitory concentration (IC50). Microsomes of human-placenta and [19-^14 C]4-androstene-3,17 dione were used as an aromatase source and a substrate, respectively.
The radioactivity of H^14 COOH which was released into a reaction mixture as a result of aromatization was measured to evaluate the aromatase activity.
The aromatase inhibitory activity and the concentration of each compound was depicted in a graph, from which the IC50 was determined.
[19-^14 C]4-Androstene-3,17-dione (1×10^-6 M, 2 KBq/ml), human placenta microsomes (a protein concentration of 0.1 mg/ml), coenzyme NADP (2×10^-3 M), glucose-6-phosphoric acid (4×10^-3 M), and glucose-6-phosphoric acid dehydrogenase (4U/ml) were added to a phosphoric acid buffer solution (67 mM, pH 7.2, 0.5 ml) and reacted at 37° C. for 30 minutes while the mixture was being shaken.
The test compound dissolved in DMSO was added to the reaction mixture and the final concentration of DMSO was in the range of 0.1 to 0.55% by volume per volume.
Chloroform (5 ml) was then added to the reaction mixtures to cease the reaction. The H^14 COOH, which had been released into a reaction mixture, was recovered in a water layer by stirring the reaction mixture. The water layer (0.1 ml) was added to a liquid scintillation cocktail (Atomlight, Dupont, 4 ml) to measure its radioactivity.
The positive control is 4-hydroxyandrostenedione.

[2] = in vivo; details: mouse, po
Experimental: Acute toxicity by oral route was investigated using ICR-JCL mice.
The compounds of the present invention, Compound Nos. 1, 2, 13, 14, 33, 34, 41, 42, 47, 48, 53, 54, 67, and 68, were dissolved or dispersed in polyethylene glycol 200 or physiological saline. The solution or suspension was given in a prescribed amount by means of a syringe or a stomach tube.

[3] = test system: Candida albicans (IFO 1060); assay: Antimycotic activity: survival of mice infected with Candida albicans; type: in vivo; details: IFO1060, 480 h, female ICR mice, oral, 100 mg/kg day for 5 consecutive days, observed for 20 days, control and solvent control 20, read-out: Survival Rate (%)
Experimental: The evaluation of antimycotic activity can be carried out by administering a dosage of the compound in […] that have been inoculated with a strain of Candida albicans, preferably orally, and observing the mortality of the inoculated mice for 20 days.
The survival rate was calculated from the mean survival days.
Five-week-old female ICR mice of 10 animals per group were infected with Candida albicans (IFO 1060) in an amount of 4.8×10^6 cfu (colony forming unit)/mouse through a tail vein.
After one hour following the introduction of the infection, a solution of each compound (see Table 8 below) in polyethylene glycol 200 was orally administered for 5 consecutive days in the amount of 100 mg/kg day.
In Table 8, the solvent group was administered only with polyethylene glycol.

[4] = test system: spontaneous mastocarcinoma; assay: Antitumor effects: tumor growth inhibition in rats with mastocarcinoma; type: in vivo, Sprague-Dawley rats; details: Rattus norvegicus, ip, read-out: Tumor growth inhibition rate (%)
Experimental: Fifty-day-old female Sprague-Dawley rats were orally given 7,12-dimethylbenzanthracene (15 mg/kg) and observed for two months. Those rats developing spontaneous mastocarcinoma were selected and divided into groups each consisting of 15 animals: groups each of which is to be given a different compound of the present invention; a group to be given a control compound; and a control group to be given a simple physiological saline solution. Each group was intraperitoneally given the corresponding physiological saline solution or dispersion in an amount of 25 mg/kg daily for 20 consecutive days. Five days after the last administration, the rats were sacrificed to weigh the tumors. The mean tumor weight (T) of the 15 rats of each of the groups which had been given compounds of the present invention or the control compound, and the mean tumor weight (C) of the 15 rats of the control group which had been given a simple physiological saline solution were calculated. The tumor growth inhibition rate of each group was calculated on the basis of the following formula:
Tumor Growth Inhibition Rate (%) = {1-T/C)} × 100. Positive control is 4-hydroxyandrostenedione.

[5] = female Sprague-Dawley rats given 7,12-dimethylbenzanthracene, intraperitoneal, 25 mg/kg daily for 20 consecutive days, mean tumor weight vs saline control
[6] = human placenta microsomes, substrate 1×10^-6 M, pH 7.2, 37° C., 30 minutes, read-out: IC50

Row | SMILES | IC50 [1] [nM] | LD50 at 168 h [2] [mg/kg] | responders at 100 mg/kg [3] [%] | inhibition in vivo at 25 mg/kg [4, 5] [%] | IC50 [1, 6] [nM] | inhibition in vivo at 25 mg/kg [4] [%]
1 | CC1OCC(Cc2ccc(F)cc2)C1(O)Cn1cncn1 (stereo not drawn) [Compound No. 1, 4-(4-fluorobenzyl)-3-hydroxy-2-methyl-3-(1H-1,2,4-triazol-1-ylmethyl) tetrahydrofuran] | 6000 | > 1000 | 40 | 60 |  | 
2 | CC1(C)OCC(Cc2ccc(F)cc2)C1(O)Cn1cncn1 (stereo not drawn) [Compound No. 13, 4-(4-fluorobenzyl)-3-hydroxy-2,2-dimethyl-3 (1H-1,2,4-triazole-1-ylmethyl) tetrahydrofuran] | 5300 | > 1000 | 55 | 58 |  | 
3 | CC1(C)OCC(Cc2ccc(F)cc2)C1(O)Cn1ccnc1 (stereo not drawn) [Compound No. 14, 4-(4-fluorobenzyl)-3-hydroxy-3-(imidazol-1-ylmethyl)-2,2-dimethyltetrahydrofuran] | 480 | > 1000 | 70 | 63 |  | 
4 | CC1(C)OCC(Cc2ccc(Cl)cc2)C1(O)Cn1cncn1 (stereo not drawn) [Compound No. 33, 4-(4-chlorobenzyl)-3-hydroxy-2,2-dimethyl-3-(1H-1,2,4-triazol-1-ylmethyl) tetrahydrofuran] | 7000 | > 1000 | 60 | 65 |  | 
5 | CC1(C)OCC(Cc2ccc(Cl)cc2)C1(O)Cn1ccnc1 (stereo not drawn) [Compound No. 34, 4-(4-chlorobenzyl)-3-hydroxy-3-(1H-imidazol-l-ylmethyl) -2,2-dimethyltetrahydrofuran] | 500 | > 1000 | 80 | 80 |  | 
6 | CC1(C)OCC(Cc2ccc(C#N)cc2)C1(O)Cn1cncn1 (stereo not drawn) [Compound No. 53] | 1200 | > 1000 | 42 | 60 |  | 
7 | CC1(C)OCC(Cc2ccc(C#N)cc2)C1(O)Cn1ccnc1 (stereo not drawn) [Compound No. 54] |  | > 1000 | 40 | 73 | 1000 | 
8 | CC1(C)OCC(Cc2ccccc2-c2ccccc2)C1(O)Cn1cncn1 (stereo not drawn) [Compound No. 67] | 4700 | > 1000 | 53 | 74 |  | 
9 | CC1(C)OCC(Cc2ccccc2-c2ccccc2)C1(O)Cn1ccnc1 (stereo not drawn) [Compound No. 68] |  | > 1000 | 62 | 85 | 350 | 
10 | C[C@]12CCC(=O)C(O)=C1CC[C@@H]1[C@@H]2CC[C@]2(C)C(=O)CC[C@@H]12 [Positive Control, 4-hydroxyandrostenedione, reference compound] |  |  |  |  |  | 48
11 | CC1OCC(Cc2ccc(F)cc2)C1(O)Cn1ccnc1 (stereo not drawn) [compound 2, 4-(4-fluorobenzyl)-3-hydroxy-3-(imidazol-1-ylmethyl)-2-methyl tetrahydrofuran] |  | > 1000 | 55 | 54 | 530 | 
12 | OC1(Cn2cncn2)COCC1Cc1ccc(F)cc1 (stereo not drawn) [compound 21] |  |  | 37 | 72 | 4700 | 
13 | OC1(Cn2ccnc2)COCC1Cc1ccc(F)cc1 (stereo not drawn) [compound 22] |  |  | 46 | 75 | 630 | 
14 | CC1(C)OCC(Cc2ccc(F)cc2F)C1(O)Cn1cncn1 (stereo not drawn) [compound 41] | 3000 | > 1000 | 56 | 48 |  | 
15 | CC1(C)OCC(Cc2ccc(F)cc2F)C1(O)Cn1ccnc1 (stereo not drawn) [compound 42] | 270 | > 1000 | 63 | 56 |  | 
16 | CC1(C)OCC(Cc2ccc(Cl)cc2Cl)C1(O)Cn1cncn1 (stereo not drawn) [compound 47] | 1000 | > 1000 | 58 | 55 |  | 
17 | CC1(C)OCC(Cc2ccc(Cl)cc2Cl)C1(O)Cn1ccnc1 (stereo not drawn) [compound 48] | 1500 | > 1000 | 53 | 70 |  | 
